Measurements from patent US4288438A, “Nitrogen-containing heterocyclic ring derivatives and analgesic and anti-inflammatory compositions and methods employing them” (priority 1976, dated 1981).

What was measured:
[1] = system: Carrageenin-induced edema; assay: Carrageenin-induced edema, hind paw, oral (Table 1); type: in vivo, Male Wister rats; conditions: rat, 1 hour before Carrageenin, edema weight after 3 hours; for inhibition in vivo at 50 mg/kg: po; for Inhibition (%) p.o. 50mg/kg / inhibition in vivo at 50 mg/kg: p.o. 50 mg/kg
Description: (a) Carrageenin-induced edema
Male Wister rats (weighting 130-170 g.), one group being 6 rats, fasted overnight were used. According to […] [Proc. Soc. […] After 3 hours, each rat was sacrificed by chloroform and the hind paw was cut and weighed immediately. By using the value obtained by subtracting the weight of the untreated hind paw from the weight of the hind paw having injected therein the Carrageenin as the weight of edema, the inhibitory ratio of the sample administered rat groups to control groups was calculated. The sample was orally administered one hour before the injection of Carrageenin.
(§1) In addition, the test samples used in the aforesaid tests (a), (b), (c) and (d) were prepared by suspending the test compounds, in the cases of using the compounds of Test Nos. 1,2,4,5,6,8,9,10,11, 16-21 and p henylbutazone,in an aqueous 0.5% methyl cellulose solution, dissolving the test compounds, in the cases of using the compounds of Test Nos. 13,14 and 15, in aqueous solution of 0.5% methyl cellulose, and further dissolving the test compounds, in the cases of using the compounds of Test Nos. 3,7 and 12 and aminopyrine, in distilled water.

writhings (acetic acid) = assay: Whittle's method: acetic acid writhing, oral (Table 2); type: in vivo, Male ICR-Mice; conditions: mouse, 0.6% acetic acid i.p.
Description: (§2) Male ICR-Mice (weighting 25-35 g.), one group being 12 mice, fasted overnight were used in this test. The sample was orally administered, and 20 minutes after, 5 ml./Kg. of 0.4% Evance blue was injected by intravenously and further 10 minutes after, 10 ml./Kg. of 0.6% acetic acid was injected by intraperitoneally. The number of writhings after 20 minutes since the administration of acetic acid was recorded and 10 minutes after since then, the mice were killed by dislocation of the neck, the dye leaked in the abdominal cavity was washed out with 5 ml. of 0.9% saline to make the total amount 10 ml., and thereafter furs, blood corpuscles, etc., intermingled were removed by centrifugal separation at 3,000 r.p.m. for 5 minutes. Furthermore, for preventing turbidity caused by protein, 0.1 ml. of an aqueous 0.1 normal sodium hydroxide was added and then the absorbance at 590 nm was measured. The inhibition ratio of the sample administered rat groups to control groups was calculated.
as §1

[2] = system: Permeability (dye leaked in the abdominal cavity); assay: Whittle's method: permeability, dye leaked in the abdominal cavity, oral (Table 2); type: in vivo, Male ICR-Mice
Description: (b) Whittle's method (British J. Pharmacol.; 22, 246-253 (1964))
as §2, §1

[3] = system: Hyperthemia caused by Brewer's yeast; assay: Antipyretic effect, Brewer's yeast hyperthermia, rectal temperature (Table 3); type: in vivo, Male Wister rats; conditions: rat, 50mg/kg p.o., in °C (unit assumed); for Rectal temperature (mean ± SE) 1 hour / Rectal temperature (mean ± SE) 2 hours / Rectal temperature (mean ± SE) 4 hours: * p<0.05 vs before for Test Nos. 1, 2 and Aminopyrine; for Rectal temperature (mean ± SE) 6 hours: * p<0.05 vs before for Test No. 2 and Aminopyrine; for Rectal temperature (mean ± SE) before: before administration
Description: Male Wister rats (weighting 130-150 g.), one group being 5 rats, were used. Hyperthemia was caused by subcutaneous injection of 2 ml./rat of 20% Brewer's yeast suspension. 18 hours later, the rats showing a rise in temperature exceeding 1° C. were selected and allocated into groups each consisting of 5 rats. The sample was orally administered and then the body temperature was measured with the passage of time for 6 hours since then. In addition, the body temperature was measured by measuring the temperature in the rectum by means of a thermister thermometer.
as §1

[4] = Acute toxicity, mouse (Table 4); type: in vivo
[5] = Acute toxicity, rat (Table 4); type: in vivo, Male Wister rats; conditions: 500 mg/Kg oral, 7 days, deaths/animals
Description: Male Wister rats (weighting 130-170 g.), one group being 5 rats, fasted overnight were used in this test.
as §1

[6] = mouse, 25 mg/kg p.o., Evance blue i.v., acetic acid i.p., 590 nm
[7] = mouse, 50 mg/kg p.o., Evance blue i.v., acetic acid i.p., 590 nm
[8] = deaths/animals, method given for rats only (500 mg/Kg oral, 7 days)

| SMILES | Inhibition (%) p.o. 50mg/kg [1] [%] | Inhibition (%) Writhing S 25mg/kg p.o. (writhings (acetic acid)) [%] | Inhibition (%) Writhing S 50mg/kg p.o. (writhings (acetic acid)) [%] | Inhibition (%) Permeability 25mg/kg p.o. [2, 6] [%] | Inhibition (%) Permeability 50mg/kg p.o. [2, 7] [%] | inhibition in vivo at 50 mg/kg [1] [%] | Inhibition (%) p.o. 100mg/kg [1] [%] | other results |
| --- | --- | --- | --- | --- | --- | --- | --- | --- |
| CN1CCCn2c1cc(-c1ccccc1)cc2=O [Test No. 1] | 71.5 | 41.8 | 87.6 | 18.0 | 44.4 | – | – | Rectal temperature (mean ± SE) 1 hour [3]: 37.07 ± 0.15; Rectal temperature (mean ± SE) 2 hours [3]: 36.17 ± 0.32; Rectal temperature (mean ± SE) 4 hours [3]: 36.12 ± 0.17; Rectal temperature (mean ± SE) 6 hours [3]: 38.52 ± 0.47; Rectal temperature (mean ± SE) before [3]: 38.82 ± 0.05 |
| CN1CCCn2c1cc1c(c2=O)CCCC1 [Test No. 15, 1-methyl-6-oxo-1,2,3,4,6,7,8,9,10-nonahydropyrimido[1,2-b]isoquinoline] | – | – | – | – | – | 52.4 | – | – |
| CC1CNc2cc(-c3ccccc3)cc(=O)n21 (centres unmarked) [Test No. 20] | 72.2 | – | – | – | – | – | – | – |
| O=c1cc(-c2ccccc2)cc2sccn12 [Test No. 21] | 46.9 | – | – | – | – | – | – | – |
| O=c1cc(-c2ccccc2)cc2n1CCN2 [Test No. 2] | 71.6 | 28.9 | 52.6 | 26.9 | 51.1 | – | 76.1 | Rectal temperature (mean ± SE) 1 hour [3]: 37.80 ± 0.10; Rectal temperature (mean ± SE) 2 hours [3]: 36.74 ± 0.24; Rectal temperature (mean ± SE) 4 hours [3]: 36.77 ± 0.39; Rectal temperature (mean ± SE) 6 hours [3]: 37.51 ± 0.57; Rectal temperature (mean ± SE) before [3]: 38.89 ± 0.21; Number of deaths Mouse ([4]; in vivo): 0/5 |
| Cc1cc2n(c(=O)c1-c1ccccc1)CCN2C [Test No. 16, 1,7-dimethyl-5-oxo-6-phenyl-1,2,3,5-tetrahydroimidazo[1,2-a]pyridine] | – | – | – | – | – | 47.7 | – | – |
| CN1CCn2c1cc1c(c2=O)CCC1 [Test No. 13, 1-methyl-5-oxo-1,2,3,6,7,8-hexahydroimidazo[1,2-b]1H-2-pyrindine] | 57.1 | – | – | – | – | – | – | – |
| CN1CCCn2c1cc(-c1ccc(Cl)cc1)cc2=O [Test No. 11] | 47.1 | – | – | – | – | – | – | – |
| O=c1cc(-c2ccccc2)cc2n1CC[S+]2[O-] (centres unmarked) [Test No. 4] | – | – | – | – | – | – | – | Number of deaths Rat [5]: 2/5; Number of deaths Mouse [4, 8]: 1/5 |
| Cc1c(-c2ccccc2)cc2n(c1=O)CCCN2C [Test No. 17, 1,7-dimethyl-6-oxo-8-phenyl-1,2,3,4,6-pentahydropyrido[1,2-a]pyrimidine] | – | – | – | – | – | 45.7 | – | – |
| Cc1c(N(C)C)c(=O)n(-c2ccccc2)n1C [Aminopyrine, reference compound] | – | 29.6 | 58.1 | 28.5 | 41.7 | – | – | Rectal temperature (mean ± SE) 1 hour [3]: 37.92 ± 0.09; Rectal temperature (mean ± SE) 2 hours [3]: 37.49 ± 0.10; Rectal temperature (mean ± SE) 4 hours [3]: 37.39 ± 0.07; Rectal temperature (mean ± SE) 6 hours [3]: 37.76 ± 0.18; Rectal temperature (mean ± SE) before [3]: 39.24 ± 0.14 |
| Cc1cc(=O)n2c(c1-c1ccccc1)NCCC2 [Test No. 19] | – | – | – | – | – | – | 46.7 | – |
| Cc1cc2n(c(=O)c1)CCCN2C [Test No. 8] | 53.3 | 35.6 | 66.4 | – | – | – | – | Inhibition (%) Permeability 25mg/kg p.o. ([2]; 25 mg/kg): 32.4%; Inhibition (%) Permeability 50mg/kg p.o. ([2]; 50 mg/kg): 25.8% |
| Cc1cc(=O)n2c(c1-c1ccccc1)N(C)CC2 [Test No. 18, 1,7-dimethyl-5-oxo-8-phenyl-1,2,3,5-tetrahydroimidazo[1,2-a]pyridine] | – | – | – | – | – | – | 41.0 | – |
| CN1CCn2c1cc1c(c2=O)CCCC1 [Test No. 14, 1-methyl-5-oxo-1,2,3,5,6,7,8,9-octahydroimidazo[1,2-b]isoquinoline] | – | – | – | – | – | 64.1 | – | – |
| CCN1CCn2c1cc(-c1ccccc1)cc2=O [Test No. 9] | – | – | – | – | – | – | – | Number of deaths Rat [5]: 0/5; Number of deaths Mouse [4, 8]: 0/5 |
| CN1CCn2c1cc(-c1ccccc1)cc2=O [Test No. 5] | – | 41.2 | 67.4 | 20.0 | 42.1 | – | – | – |
| CCCCC1C(=O)N(c2ccccc2)N(c2ccccc2)C1=O [phenylbutazone, reference compound] | – | – | – | – | – | 44.5 | 51.2 | – |
| Cc1cc2n(c(=O)c1)CCN2C [Test No. 3, 1,7-dimethyl-5-oxo-1,2,3,5-tetrahydroimidazo[1,2-a]pyridine] | – | 52.1 | 75.3 | 18.5 | 46.2 | 52.3 | 51.5 | Number of deaths Mouse [4, 8]: 1/5 |
| CN1CCn2c1ccc(-c1ccccc1)c2=O [Test No. 7, 1-methyl-5-oxo-6-phenyl-1,2,3,5-tetrahydroimidazo[1,2-a]pyridine] | – | 59.1 | 95.3 | 49.3 | 63.8 | 75 | 79.5 | – |
| O=c1cc(-c2ccccc2)cc2n1CCCN2 [Test No. 6] | 72.7 | 69.0 | 91.5 | 28.4 | 59.0 | – | 80.5 | – |
| O=c1cc(-c2ccccc2)cc2n1CCS2 [Test No. 10] | – | – | – | – | – | – | – | Number of deaths Rat [5]: 0/5; Number of deaths Mouse [4, 8]: 0/5 |
